Measurements: patent US6348445B1, “Biologically active peptides with reduced toxicity in animals and a method for preparing same” (priority 1992, dated 2002)
Converted amounts (≈) assume the structure as drawn. *1 amine or outer side, *2 acyl side, *3 side chain or, on linkers, in order; H or OH if unused. Where a SMILES comes first, the peptide text is derived from it. [ ]: non-standard residue; d: D form. The star is where a group is joined. X1 = O=C([C@H](CCCCNCS(=O)(=O)O)N[*:1])[*:2]; Octanoyl = CCCCCCCC(=O)*

Columns and labels:
[1] = tested on: S. aureus ATCC 29213; format: cell-based; conditions: ATCC 29213
[2] = tested on: P. aeruginosa strain ATCC 27853; format: cell-based; conditions: ATCC 27853
Procedure, shortened: (§1)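 Broth microdilution per NCCLS M7-T2: final peptide levels 0.25 to 256 μg/ml (twofold steps), inoculum 1-5×10^5 CFUs/ml in full-strength Mueller Hinton broth. MIC read as lowest concentration leaving the well clear after 16-20 hours at 37° C.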

[3] = tested on: P. gingivalis
[4] = tested on: E. coli ATCC strain 25922; experiment: Minimal Inhibitory Concentration, microtiter broth dilution; format: cell-based; conditions: ATCC strain 25922
Procedure, shortened: as §1

[5] = tested on: C. albicans ATCC 90028; format: cell-based; conditions: ATCC 90028
Description: The procedure for the anti-bacterial assay is based upon the guidelines of the National Committee for Clinical Laboratory Standards, Document M7-T2, Volume 8, No. 8, 1988, which document is entirely incorporated herein by reference.
Stock solutions of peptides, with and without the appropriate substitutions, were prepared at a concentration of 512 μg/ml in sterile deionized distilled water and stored at −70° C.
The stock peptide solution was diluted in serial dilutions (1:2) down the wells of a microtiter plate so that the final concentrations of peptides in the wells were 0.25, 0.50, 1, 2, 4, 8, 16, 32, 64, 128 and 256 μg/ml. 1-5×10^5 CFUs/ml of either S. aureus ATCC 25923, E. coli ATCC 25922, P. aeruginosa ATCC 27853, or C. albicans, were added to the wells in full strength Mueller Hinton broth (BBL 11443) from a mid-log culture. The inoculum was standardized spectrophotometrically at 600 nm and was verified by colony counts. The plates were incubated for 16-20 hours at 37° C., and the minimal inhibitory concentration (MIC) for each peptide was determined. Minimal inhibitory concentration is defined as the lowest concentration of peptide which produces a clear well in the microtiter plate. The minimal inhibitory concentration of each of the peptides with and/or without the appropriate substitutions is given in Table I below.
(§2) The in vitro anti-microbial activities of the methane sulfonate derivatives were determined according to the methods described in Examples 1 and 2. The activities against ATCC strains of S. aureus, E. coli, P. aeruginosa, and C. albicans, and the hemolysis of red blood cells were compared to the parent compound (Table IV). The activities for Compound 843 (Oct-SEQ ID NO:143) methane sulfonate against clinical strains of P. aeruginosa isolated from cystic fibrosis patients were compared to the parent compound (Table V). The activity for Compound 469 (Oct-SEQ ID NO:27) methane sulfonate against P. gingivalis was compared to the parent compound (Table VI).

[6] = tested on: red blood cells; experiment: hemolysis of red blood cells; format: cell-based
Description: as §2

[7] = tested on: C. albicans; format: cell-based
Procedure, shortened: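 Broth microdilution: mid-log organisms at 1-5×10^5 CFU/ml in Mueller Hinton broth exposed to 2-fold peptide series (0.25–256 μg/ml final). After 16-20 h at 37° C, MIC read as the lowest concentration leaving the well clear.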

[8] = tested on: A. viscosus; experiment: anaerobic anti-microbial susceptibility test (MIC); format: cell-based; conditions: 24-48 hours
[9] = tested on: S. mutans; experiment: anaerobic anti-microbial susceptibility test (MIC); format: cell-based; parameters: unit not given here; conditions: 24-48 hours

SMILES	MIC S. aureus ATCC 29213 [1] [µg/mL]	MIC P. aeruginosa ATCC 27853 [2] [µg/mL]	MIC P. gingivalis ATTC 33277 [3] [µg/mL]	MIC E. coli ATCC 25922 [4] [µg/mL]	MIC C. albicans ATCC 90028 [5] [µg/mL]	% Hemolysis (500 μg/ml) [6] [%]	Minimal Inhibitory Concentration P [2] [µg/mL]	MIC P. gingivalis (strain) 9-14K-1 ([3]; anaerobic, 24-48 hours) [μl/ml]	MIC P. gingivalis (strain) 381 ([3]; anaerobic, 24-48 hours) [μl/ml]	MIC P. gingivalis (strain) 450 ([3]; anaerobic, 24-48 hours) [μl/ml]	MIC P. gingivalis (strain) A7A1-28 ([3]; anaerobic, 24-48 hours) [μl/ml]	MIC P. gingivalis (strain) FAY-19M-1 ([3]; anaerobic, 24-48 hours) [μl/ml]	Minimal Inhibitory Concentration E [4] [µg/mL]	Minimal Inhibitory Concentration CA [7] [µg/mL]	MIC A. viscos [8] [μl/ml]	MIC S. mutans [9]
CCCCCCCC(=O)N[C@@H](CCCCNCS(=O)(=O)O)C(=O)N[C@H](C(=O)N[C@@H](C)C(=O)NCC(=O)N[C@@H](CCCCNCS(=O)(=O)O)C(=O)N[C@H](C(=O)N[C@@H](C)C(=O)N[C@@H](CCCCNCS(=O)(=O)O)C(=O)N[C@H](C(=O)N[C@@H](C)C(=O)NCC(=O)N[C@@H](CCCCNCS(=O)(=O)O)C(=O)N[C@H](C(=O)N[C@@H](C)C(=O)N[C@@H](CCCCNCS(=O)(=O)O)C(=O)N[C@H](C(=O)N[C@@H](C)C(=O)NCC(=O)N[C@@H](CCCCNCS(=O)(=O)O)C(=O)N[C@H](C(=O)N[C@@H](C)C(N)=O)[C@@H](C)CC)[C@@H](C)CC)[C@@H](C)CC)[C@@H](C)CC)[C@@H](C)CC)[C@@H](C)CC [Compound 1662] (Octanoyl-[X1]IAG[X1]IA[X1]IAG[X1]IA[X1]IAG[X1]IA-NH2)	4 (≈ 1.45 µM)	32 (≈ 11.6 µM)	8 (≈ 2.91 µM)	8 (≈ 2.91 µM)	64 (≈ 23.2 µM)											
CCCCCCCC(=O)N[C@@H](CCCCN)C(=O)N[C@H](C(=O)N[C@@H](C)C(=O)NCC(=O)N[C@@H](CCCCN)C(=O)N[C@H](C(=O)N[C@@H](C)C(=O)N[C@@H](CCCCN)C(=O)N[C@H](C(=O)N[C@@H](C)C(=O)NCC(=O)N[C@@H](CCCCN)C(=O)N[C@H](C(=O)N[C@@H](C)C(=O)N[C@@H](CCCCN)C(=O)N[C@H](C(=O)N[C@@H](C)C(=O)NCC(=O)N[C@@H](CCCCN)C(=O)N[C@H](C(=O)N[C@@H](C)C(N)=O)[C@@H](C)CC)[C@@H](C)CC)[C@@H](C)CC)[C@@H](C)CC)[C@@H](C)CC)[C@@H](C)CC [Oct-(SEQ ID NO: 27)-NH2, (Oct-KIAGKIA)3-NH2)] (Octanoyl-KIAGKIAKIAGKIAKIAGKIA-NH2)	2 (≈ 0.914 µM)	4 to 8	4 (≈ 1.83 µM)	4 (≈ 1.83 µM)	64 (≈ 29.2 µM)	100	4	4	16	16	4	4	2	16	16	16
